Test results as given in the supplement of paper PMC10307832.

Tests used:
Experiment in all cases: relative viability (nuclei count vs DMSO), 5 days (fraction); higher = more cells survive
NCI-H1734 = system: NCI-H1734
Procedure, shortened: (§1)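 Relative viability was taken as the ratio of nuclei in treated wells to nuclei in vehicle wells. Lung cancer cell lines in 1536-well plates received compounds by pin tool one day after seeding, either one drug alone or a fixed anchor-drug dose plus five library-drug doses (not always all listed) in √10 steps. Nuclei were counted on 4× images after 5 days of treatment, and values are medians of duplicate plates.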

NCI-H358 = system: NCI-H358
Procedure, shortened: as §1

NCI-H2228 = system: NCI-H2228
Procedure, shortened: as §1

COR-L23 = system: COR-L23
Procedure, shortened: as §1

NCI-H1355 = system: NCI-H1355
Procedure, shortened: as §1

NCI-H1792 = system: NCI-H1792
Procedure, shortened: as §1

NCI-H1395 = system: NCI-H1395
Procedure, shortened: as §1

HCC-15 = system: HCC-15
Procedure, shortened: as §1

HARA = system: HARA
Procedure, shortened: as §1

NCI-H1993 = system: NCI-H1993
Procedure, shortened: as §1

NCI-H838 = system: NCI-H838
Procedure, shortened: as §1

UMC-11 = system: UMC-11
Procedure, shortened: as §1

NCI-H2009 = system: NCI-H2009
Procedure, shortened: as §1

HOP-62 = system: HOP-62
Procedure, shortened: as §1

NCI-H1755 = system: NCI-H1755
Procedure, shortened: as §1

NCI-H2347 = system: NCI-H2347
Procedure, shortened: as §1

NCI-H522 = system: NCI-H522
Procedure, shortened: as §1

SK-MES-1 = system: SK-MES-1
Procedure, shortened: as §1

NCI-H1793 = system: NCI-H1793
Procedure, shortened: as §1

COR-L 105 = system: COR-L 105
Procedure, shortened: as §1

NCI-H2170 = system: NCI-H2170
Procedure, shortened: as §1

NCI-H647 = system: NCI-H647
Procedure, shortened: as §1

Compound `CCN(CC)CCCCNc1ncc2cc(-c3cc(OC)cc(OC)c3)c(NC(=O)NC(C)(C)C)nc2n1` + CCNC(=O)c1noc(-c2cc(C(C)C)c(O)cc2O)c1-c1ccc(CN2CCOCC2)cc1 [Luminespib] (partner 0.01 µM) has a relative viability (NCI-H1734; first compound 0.01 µM) of 0.0982, a relative viability (NCI-H1734; first compound 0.03162 µM) of 0.189 and a relative viability (NCI-H1734; first compound 0.1 µM) of 0.19. For the same compound, the relative viability (NCI-H1734; first compound 0.3162 µM) was 0.197, the relative viability (NCI-H1734; first compound 1 µM) was 0.178 and the relative viability (NCI-H358; first compound 0.01 µM) was 0.429. It also gave a relative viability (NCI-H358; first compound 0.03162 µM) of 0.193, a relative viability (NCI-H358; first compound 0.1 µM) of 0.348 and a relative viability (NCI-H358; first compound 0.3162 µM) of 0.503. For the same compound, the relative viability (NCI-H358; first compound 1 µM) was 0.347, the relative viability (NCI-H2228; first compound 0.01 µM) was 0.131 and the relative viability (NCI-H2228; first compound 0.03162 µM) was 0.109. For the same compound, the relative viability (NCI-H2228; first compound 0.1 µM) was 0.173, the relative viability (NCI-H2228; first compound 0.3162 µM) was 0.247 and the relative viability (NCI-H2228; first compound 1 µM) was 0.142. The relative viability (COR-L23; first compound 0.01 µM) was 0.799, the relative viability (COR-L23; first compound 0.03162 µM) was 0.707 and the relative viability (COR-L23; first compound 0.1 µM) was 0.955. The relative viability (COR-L23; first compound 0.3162 µM) was 1.03, the relative viability (COR-L23; first compound 1 µM) was 0.639 and the relative viability (NCI-H1355; first compound 0.01 µM) was 0.795. It also gave a relative viability (NCI-H1355; first compound 0.03162 µM) of 0.824, a relative viability (NCI-H1355; first compound 0.1 µM) of 0.704 and a relative viability (NCI-H1355; first compound 0.3162 µM) of 0.738. It also gave a relative viability (NCI-H1355; first compound 1 µM) of 0.649, a relative viability (NCI-H1792; first compound 0.01 µM) of 0.38 and a relative viability (NCI-H1792; first compound 0.03162 µM) of 0.388. For the same compound, the relative viability (NCI-H1792; first compound 0.1 µM) was 0.536, the relative viability (NCI-H1792; first compound 0.3162 µM) was 0.37 and the relative viability (NCI-H1792; first compound 1 µM) was 0.282. It also gave a relative viability (NCI-H1395; first compound 0.01 µM) of 0.659, a relative viability (NCI-H1395; first compound 0.03162 µM) of 0.878 and a relative viability (NCI-H1395; first compound 0.1 µM) of 0.662. It also gave a relative viability (NCI-H1395; first compound 0.3162 µM) of 0.65, a relative viability (NCI-H1395; first compound 1 µM) of 0.48 and a relative viability (HCC-15; first compound 0.01 µM) of 0.251. It also gave a relative viability (HCC-15; first compound 0.03162 µM) of 0.257, a relative viability (HCC-15; first compound 0.1 µM) of 0.348 and a relative viability (HCC-15; first compound 0.3162 µM) of 0.422. The relative viability (HCC-15; first compound 1 µM) was 0.266, the relative viability (HARA; first compound 0.01 µM) was 1.11 and the relative viability (HARA; first compound 0.03162 µM) was 0.896. For the same compound, the relative viability (HARA; first compound 0.1 µM) was 0.948, the relative viability (HARA; first compound 0.3162 µM) was 0.904 and the relative viability (HARA; first compound 1 µM) was 0.439. It also gave a relative viability (NCI-H1993; first compound 0.01 µM) of 0.401, a relative viability (NCI-H1993; first compound 0.03162 µM) of 0.715 and a relative viability (NCI-H1993; first compound 0.1 µM) of 0.771. It also gave a relative viability (NCI-H1993; first compound 0.3162 µM) of 0.97, a relative viability (NCI-H1993; first compound 1 µM) of 0.666 and a relative viability (NCI-H838; first compound 0.01 µM) of 0.344. For the same compound, the relative viability (NCI-H838; first compound 0.03162 µM) was 0.244, the relative viability (NCI-H838; first compound 0.1 µM) was 0.304 and the relative viability (NCI-H838; first compound 0.3162 µM) was 0.304. The relative viability (NCI-H838; first compound 1 µM) was 0.3, the relative viability (UMC-11; first compound 0.01 µM) was 1.05 and the relative viability (UMC-11; first compound 0.03162 µM) was 1.08. For the same compound, the relative viability (UMC-11; first compound 0.1 µM) was 1.25, the relative viability (UMC-11; first compound 0.3162 µM) was 1.04 and the relative viability (UMC-11; first compound 1 µM) was 0.94. The relative viability (NCI-H2009; first compound 0.01 µM) was 1.15, the relative viability (NCI-H2009; first compound 0.03162 µM) was 0.983 and the relative viability (NCI-H2009; first compound 0.1 µM) was 1.13. For the same compound, the relative viability (NCI-H2009; first compound 0.3162 µM) was 1.1, the relative viability (NCI-H2009; first compound 1 µM) was 0.931 and the relative viability (HOP-62; first compound 0.01 µM) was 1.12. It also gave a relative viability (HOP-62; first compound 0.03162 µM) of 0.986, a relative viability (HOP-62; first compound 0.1 µM) of 1.02 and a relative viability (HOP-62; first compound 0.3162 µM) of 0.961. It also gave a relative viability (HOP-62; first compound 1 µM) of 0.888, a relative viability (NCI-H1755; first compound 0.01 µM) of 0.455 and a relative viability (NCI-H1755; first compound 0.03162 µM) of 0.694. The relative viability (NCI-H1755; first compound 0.1 µM) was 0.458, the relative viability (NCI-H1755; first compound 0.3162 µM) was 0.606 and the relative viability (NCI-H1755; first compound 1 µM) was 0.44. The relative viability (NCI-H2347; first compound 0.01 µM) was 0.675, the relative viability (NCI-H2347; first compound 0.03162 µM) was 0.341 and the relative viability (NCI-H2347; first compound 0.1 µM) was 0.447. For the same compound, the relative viability (NCI-H2347; first compound 0.3162 µM) was 0.372, the relative viability (NCI-H2347; first compound 1 µM) was 0.526 and the relative viability (NCI-H522; first compound 0.01 µM) was 1.14. It also gave a relative viability (NCI-H522; first compound 0.03162 µM) of 1.08, a relative viability (NCI-H522; first compound 0.1 µM) of 1.15 and a relative viability (NCI-H522; first compound 0.3162 µM) of 1.13. For the same compound, the relative viability (NCI-H522; first compound 1 µM) was 1.11, the relative viability (SK-MES-1; first compound 0.01 µM) was 0.97 and the relative viability (SK-MES-1; first compound 0.03162 µM) was 0.762. It also gave a relative viability (SK-MES-1; first compound 0.1 µM) of 0.832, a relative viability (SK-MES-1; first compound 0.3162 µM) of 0.798 and a relative viability (SK-MES-1; first compound 1 µM) of 0.576. The relative viability (NCI-H1793; first compound 0.01 µM) was 0.345, the relative viability (NCI-H1793; first compound 0.03162 µM) was 0.198 and the relative viability (NCI-H1793; first compound 0.1 µM) was 0.166. For the same compound, the relative viability (NCI-H1793; first compound 0.3162 µM) was 0.157, the relative viability (NCI-H1793; first compound 1 µM) was 0.156 and the relative viability (COR-L 105; first compound 0.01 µM) was 0.909. The relative viability (COR-L 105; first compound 0.03162 µM) was 0.698, the relative viability (COR-L 105; first compound 0.1 µM) was 0.73 and the relative viability (COR-L 105; first compound 0.3162 µM) was 0.795. It also gave a relative viability (COR-L 105; first compound 1 µM) of 0.68, a relative viability (NCI-H2170; first compound 0.01 µM) of 0.446 and a relative viability (NCI-H2170; first compound 0.03162 µM) of 0.857. The relative viability (NCI-H2170; first compound 0.1 µM) was 0.668, the relative viability (NCI-H2170; first compound 0.3162 µM) was 0.801 and the relative viability (NCI-H2170; first compound 1 µM) was 0.937. It also gave a relative viability (NCI-H647; first compound 0.01 µM) of 0.163, a relative viability (NCI-H647; first compound 0.03162 µM) of 0.205 and a relative viability (NCI-H647; first compound 0.1 µM) of 0.222. The relative viability (NCI-H647; first compound 0.3162 µM) was 0.205 and the relative viability (NCI-H647; first compound 1 µM) was 0.148.
